From patent publication US9156872B2, “2′-azido substituted nucleoside derivatives and methods of use thereof for the treatment of viral diseases” (priority 2011, dated 2015)

system: HCV replicon cells; assay: Cell-based HCV replicon assay (replicon RNA by Taqman real time PCR); conditions: HCV replicon 1b, cells harvested on day 3; read-out: 1b EC50

Point of comparison: `CCOc1nc(N)nc2c1ncn2[C@@H]1O[C@@H]2COP(=O)(OC3CCC3)O[C@H]2[C@@]1(C)N=[N+]=[N-]` (single isomer, unassigned) [Compound 101], EC50 100 nM. Against it:
- COc1nc(N)nc2c1ncn2[C@@H]1O[C@@H]2COP(=O)(OC3CCC3)O[C@H]2[C@@]1(C)N=[N+]=[N-] (single isomer, unassigned) [Compound 104] — 110-fold higher, 10900 nM

same assay, conditions: Hepatitis C virus, 72 h, HCV replicon 1b, cells harvested on day 3; read-out: 1b EC50

Work on `CCOc1nc(N)nc2c1ncn2[C@@H]1O[C@@H]2COP(=O)(OC(C)C)O[C@H]2[C@@]1(C)N=[N+]=[N-]` (stereo partly shown) [Compound 23] yielded an EC50 of 69000 nM.

same assay, conditions: Hepatitis C virus, 72 h, read-out: 1b EC50

Point of comparison: `CCOC(=O)[C@H](C)NP(=O)(OC[C@H]1O[C@@H](n2cnc3c(OCC)nc(N)nc32)[C@](C)(N=[N+]=[N-])[C@@H]1O)Oc1ccc(F)cc1` (single isomer, unassigned) [Compound 175], EC50 400 nM. Against it:
- COC(=O)[C@H](C)NP(=O)(OC[C@H]1O[C@@H](n2cnc3c(N4CCC4)nc(N)nc32)[C@](C)(N=[N+]=[N-])[C@@H]1O)Oc1ccccc1 (stereo partly shown) [Compound 390] — 8.5-fold higher, 3400 nM
- COC(=O)[C@H](C)NP(=O)(OC[C@H]1O[C@@H](n2ccc(N)nc2=O)[C@](C)(N=[N+]=[N-])[C@@H]1O)Oc1ccccc1Cl (single isomer, unassigned) [Compound 330] — 30-fold higher, 12000 nM
- C[C@H](NP(=O)(OC[C@H]1O[C@@H](n2ccc(=O)[nH]c2=O)[C@](C)(N=[N+]=[N-])[C@@H]1O)Oc1ccc(Cl)cc1)C(=O)OC1CCCCC1 (stereo partly shown) [Compound 324] — 11-fold higher, 4300 nM
- CCCOC(=O)[C@H](C)NP(=O)(OC[C@H]1O[C@@H](n2ccc(N)nc2=O)[C@](C)(N=[N+]=[N-])[C@@H]1O)Oc1ccccc1 (stereo partly shown) [Compound 30] — 8.2-fold higher, 3300 nM
- CCCOC(=O)[C@H](C)NP(=O)(OC[C@H]1O[C@@H](n2cnc3c(OCC)nc(N)nc32)[C@](C)(N=[N+]=[N-])[C@@H]1O)Oc1ccccc1 (single isomer, unassigned) [Compound 163] — 2.8-fold higher, 1100 nM
- C[C@H](NP(=O)(OC[C@H]1O[C@@H](n2ccc(=O)[nH]c2=O)[C@](C)(N=[N+]=[N-])[C@@H]1O)Oc1ccccc1)C(=O)OCc1ccccc1 (stereo partly shown) [Compound 299] — 14-fold higher, 5600 nM
- COc1nc(N)nc2c1ncn2[C@@H]1O[C@H](COP(=O)(N[C@@H](C)C(=O)OC2CCCCC2)Oc2ccccc2)[C@@H](O)[C@@]1(C)N=[N+]=[N-] (stereo partly shown) [Compound 239] — 9-fold higher, 3600 nM
- C[C@H](NP(=O)(OC[C@H]1O[C@@H](n2ccc(N)nc2=O)[C@](C)(N=[N+]=[N-])[C@@H]1O)Oc1ccccc1)C(=O)OC1CCCCC1 (single isomer, unassigned) [Compound 337] — 68-fold higher, 27000 nM
- CCCCOC(=O)[C@H](C)NP(=O)(OC[C@H]1O[C@@H](n2cnc3c(OC)nc(N)nc32)[C@](C)(N=[N+]=[N-])[C@@H]1O)Oc1cccc2ccccc12 (stereo partly shown) [Compound 52] — 3-fold higher, 1200 nM
- CCCCOC(=O)[C@H](C)NP(=O)(OC[C@H]1O[C@@H](n2cnc3c(OC)nc(N)nc32)[C@](C)(N=[N+]=[N-])C1O)Oc1cccc2ccccc12 (single isomer, unassigned) [Compound 297] — 4-fold lower, 100 nM
- CCOc1nc(N)nc2c1ncn2[C@@H]1O[C@H](COP(=O)(N[C@@H](C)C(=O)OC)Oc2ccccc2Cl)[C@@H](O)[C@@]1(C)N=[N+]=[N-] (stereo partly shown) [Compound 58] — within 1.5-fold, 500 nM
- COC(=O)[C@H](C)NP(=O)(OC[C@H]1O[C@@H](n2cnc3c(OC)nc(N)nc32)[C@](C)(N=[N+]=[N-])[C@@H]1O)Oc1ccc(Cl)cc1 (stereo partly shown) [Compound 79] — 2-fold lower, 200 nM
- CC(C)OC(=O)[C@H](C)NP(=O)(OC[C@H]1O[C@@H](n2ccc(N)nc2=O)[C@](C)(N=[N+]=[N-])[C@@H]1O)Oc1ccc(F)cc1 (stereo partly shown) [Compound 196] — 98-fold higher, 39000 nM
- COC(=O)[C@H](C)NP(=O)(OC[C@H]1O[C@@H](n2ccc(=O)[nH]c2=O)[C@](C)(N=[N+]=[N-])[C@@H]1O)Oc1ccccc1 (stereo partly shown) [Compound 5] — 8.2-fold higher, 3300 nM
- C[C@H](NP(=O)(OC[C@H]1O[C@@H](n2ccc(=O)[nH]c2=O)[C@](C)(N=[N+]=[N-])[C@@H]1O)Oc1cccc2ccccc12)C(=O)OCc1ccccc1 (stereo partly shown) [Compound 230] — 35-fold higher, 14000 nM
- C[C@H](NP(=O)(OC[C@H]1O[C@@H](n2ccc(N)nc2=O)[C@](C)(N=[N+]=[N-])[C@@H]1O)Oc1ccccc1)C(=O)OC1CCCC1 (stereo partly shown) [Compound 97] — 38-fold higher, 15000 nM
- COC(=O)[C@H](C)NP(=O)(OC[C@H]1O[C@@H](n2cnc3c(N4CCC4)nc(N)nc32)[C@](C)(N=[N+]=[N-])[C@@H]1O)Oc1ccccc1Cl (stereo partly shown) [Compound 388] — 4-fold higher, 1600 nM
- COc1nc(N)nc2c1ncn2[C@@H]1O[C@H](COP(=O)(N[C@@H](C)C(=O)OCc2ccccc2)Oc2ccccc2)[C@@H](O)[C@@]1(C)N=[N+]=[N-] (stereo partly shown) [Compound 246] — 1.5-fold higher, 600 nM
- COc1nc(N)nc2c1ncn2[C@@H]1O[C@H](COP(=O)(N[C@@H](C)C(=O)OC2CCCCC2)Oc2ccc(Cl)cc2)[C@@H](O)[C@@]1(C)N=[N+]=[N-] (stereo partly shown) [Compound 80] — 6.5-fold higher, 2600 nM
- COc1nc(N)nc2c1ncn2[C@@H]1O[C@H](COP(=O)(N[C@@H](C)C(=O)OC(C)C)Oc2ccccc2)C(O)[C@@]1(C)N=[N+]=[N-] (single isomer, unassigned) [Compound 252] — 2.8-fold higher, 1100 nM
- CCCCOC(=O)[C@H](C)NP(=O)(OC[C@H]1O[C@@H](n2cnc3c(OCC)nc(N)nc32)[C@](C)(N=[N+]=[N-])[C@@H]1O)Oc1ccc2c(c1)OCO2 (stereo partly shown) [Compound 371] — 3.5-fold higher, 1400 nM
- CCCCOC(=O)[C@H](C)NP(=O)(OC[C@H]1O[C@@H](n2cnc3c(OCC)nc(N)nc32)[C@](C)(N=[N+]=[N-])[C@@H]1O)Oc1ccc(F)cc1 (stereo partly shown) [Compound 366] — the same, 400 nM
- CCOc1nc(N)nc2c1ncn2[C@@H]1O[C@H](COP(=O)(N[C@@H](C)C(=O)OC2CCCCC2)Oc2ccccc2)[C@@H](O)[C@@]1(C)N=[N+]=[N-] (stereo partly shown) [Compound 145] — 2-fold lower, 200 nM
- CCOC(=O)[C@H](C)NP(=O)(OC[C@H]1O[C@@H](n2cnc3c(OCC)nc(N)nc32)[C@](C)(N=[N+]=[N-])[C@@H]1O)Oc1ccccc1Cl (single isomer, unassigned) [Compound 358] — 5.8-fold higher, 2300 nM
- COc1nc(N)nc2c1ncn2[C@@H]1O[C@H](COP(=O)(N[C@@H](C)C(=O)OC(C)C)Oc2ccccc2Cl)[C@@H](O)[C@@]1(C)N=[N+]=[N-] (stereo partly shown) [Compound 240] — 14-fold higher, 5800 nM

same assay, conditions: read-out: 1b EC50

Point of comparison: `CC(C)OC(=O)[C@H](C)NP(=O)(OC[C@H]1O[C@@H](n2ccc(N)nc2=O)[C@](C)(N=[N+]=[N-])[C@@H]1O)Oc1ccc2c(c1)OCO2` (single isomer, unassigned) [Compound 334], EC50 13000 nM. Against it:
- C[C@H](NP(=O)(OC[C@H]1O[C@@H](n2ccc(N)nc2=O)[C@](C)(N=[N+]=[N-])[C@@H]1O)Oc1ccccc1Cl)C(=O)OCC(C)(C)C (single isomer, unassigned) [Compound 181] — 3.4-fold lower, 3800 nM
- CC(C)OC(=O)[C@H](C)NP(=O)(OC[C@H]1O[C@@H](n2ccc(N)nc2=O)[C@](C)(N=[N+]=[N-])[C@@H]1O)Oc1ccccc1Cl (single isomer, unassigned) [Compound 204] — 10-fold lower, 1300 nM
- CCOc1nc(N)nc2c1ncn2[C@@H]1O[C@H](COP(=O)(N[C@@H](C)C(=O)OCC(C)(C)C)Oc2ccccc2)[C@@H](O)[C@@]1(C)N=[N+]=[N-] (single isomer, unassigned) [Compound 161] — 7.6-fold lower, 1700 nM
- COC(=O)[C@H](C)NP(=O)(OC[C@H]1O[C@@H](n2cnc3c(OC)nc(N)nc32)[C@](C)(N=[N+]=[N-])[C@@H]1O)Oc1ccccc1Cl (single isomer, unassigned) [Compound 257] — 19-fold lower, 700 nM
- CCOc1nc(N)nc2c1ncn2[C@@H]1O[C@H](COP(=O)(N[C@@H](C)C(=O)OCC(C)C)Oc2ccccc2)[C@@H](O)[C@@]1(C)N=[N+]=[N-] (stereo partly shown) [Compound 61] — 16-fold lower, 800 nM
- CC(C)COC(=O)[C@H](C)NP(=O)(OC[C@H]1O[C@@H](n2ccc(=O)[nH]c2=O)[C@](C)(N=[N+]=[N-])[C@@H]1O)Oc1ccccc1 (stereo partly shown) [Compound 38] — 43-fold lower, 300 nM
- CCCCOC(=O)[C@H](C)NP(=O)(OC[C@H]1O[C@@H](n2ccc(=O)[nH]c2=O)[C@](C)(N=[N+]=[N-])[C@@H]1O)Oc1ccccc1 (single isomer, unassigned) [Compound 170] — 8.7-fold lower, 1500 nM
- C[C@H](NP(=O)(OC[C@H]1O[C@@H](n2ccc(=O)[nH]c2=O)[C@](C)(N=[N+]=[N-])[C@@H]1O)Oc1ccccc1)C(=O)OCC(C)(C)C (single isomer, unassigned) [Compound 153] — within 1.5-fold, 19000 nM
- COC(=O)c1ccccc1OP(=O)(N[C@@H](C)C(=O)OC)OC[C@H]1O[C@@H](n2ccc(=O)[nH]c2=O)[C@](C)(N=[N+]=[N-])[C@@H]1O (single isomer, unassigned) [Compound 216] — 10-fold lower, 1300 nM
- CCOC(=O)[C@H](C)NP(=O)(OC[C@H]1O[C@@H](n2ccc(N)nc2=O)[C@](C)(N=[N+]=[N-])[C@@H]1O)Oc1ccc(Cl)cc1 (single isomer, unassigned) [Compound 190] — 2.3-fold lower, 5600 nM
- CC(C)OC(=O)[C@H](C)NP(=O)(OC[C@H]1O[C@@H](n2ccc(N)nc2=O)[C@](C)(N=[N+]=[N-])[C@@H]1O)Oc1ccc2c(c1)OCO2 (single isomer, unassigned) [Compound 335] — higher, > 100000 nM
- CCOc1nc(N)nc2c1ncn2[C@@H]1O[C@H](COP(=O)(N[C@@H](C)C(=O)OCc2ccccc2)Oc2ccccc2)[C@@H](O)[C@@]1(C)N=[N+]=[N-] (single isomer, unassigned) [Compound 351] — 5-fold lower, 2600 nM
- CCCCOC(=O)[C@H](C)NP(=O)(OC[C@H]1O[C@@H](n2ccc(=O)[nH]c2=O)[C@](C)(N=[N+]=[N-])[C@@H]1O)Oc1ccccc1 (single isomer, unassigned) [Compound 169] — 3.7-fold lower, 3500 nM
- CC(C)OC(=O)[C@H](C)NP(=O)(OC[C@H]1O[C@@H](n2ccc(N)nc2=O)[C@](C)(N=[N+]=[N-])[C@@H]1O)Oc1ccccc1Cl (single isomer, unassigned) [Compound 333] — 10-fold lower, 1300 nM
- COC(=O)[C@H](C)NP(=O)(OC[C@H]1O[C@@H](n2ccc(N)nc2=O)[C@](C)(N=[N+]=[N-])[C@@H]1O)Oc1ccc(Cl)c(Cl)c1 (single isomer, unassigned) [Compound 344] — 2.7-fold higher, 35000 nM
- CCOC(=O)[C@H](C)NP(=O)(OC[C@H]1O[C@@H](n2cnc3c(OC)nc(N)nc32)[C@](C)(N=[N+]=[N-])[C@@H]1O)Oc1ccc(F)cc1 (single isomer, unassigned) [Compound 271] — 3-fold lower, 4400 nM
